Test results from patent US20190038556A1, “FORMULATIONS AND CARRIER SYSTEMS INCLUDING COMPOUND INTERACTIVE DOMAINS” (University of Pittsburgh - Of The Commonwealth System of …, priority 2012, published 2019).

Assays:
[1] = Solubilization of tested agents with multi-chain PEGylated micelle-forming surfactants (Table 1)
Description: The exact mechanism for the protection of ECGC against oxygen in the form of complex is unknown.

[2] = Particle size measurement by laser dynamic light scattering; assay type: physicochemical; conditions: agent formulated with multi-chain PEGylated micelle-forming surfactant
Experimental: 1(f). Particle size measurement. […] Samples were further diluted ten times in distilled water and sizes were measured by laser dynamic light scattering using a particle sizer (Zetasizer Nano ZS instrument, available from Malvern Instruments Ltd of Worcestershire, United Kingdom). Size measurement of emulsion particles were conducted using a Coulter N4 particle sizer after a 100-fold dilution in saline.

[3] = Oxidation of ECGC in PBS on exposure to air; assay type: physicochemical; conditions: exposed to air, free 24 hrs, complex over a week
[4] = Size distribution of PTX/PEG-Fmoc2 mixed nanomicelles (DLS); assay type: physicochemical
Experimental: 2(b)(iv). Preparation and biophysical characterization of PTX/PEG-Fmoc2 mixed micelles. Thin-film hydration method was utilized for preparation of PTX/PEG-Fmoc2 mixed nanomicelles. PEG-Fmoc2 and PTX in chloroform were well mixed in a glass tube at designated molar ratios. A thin film of carrier/drug mixture was generated through removal of the organic solvent by a gentle stream of nitrogen. The trace amount of solvent was further removed via vacuum for 2 h. Then the film was hydrated and suspended in DPBS by vortex to obtain a clear solution of PTX/PEG-Fmoc2 mixed nanomicelles. Any non-entrapped drug was removed by filtration through 220 nm PVDF syringe filter.
(§1) The size distribution of PTX/PEG-Fmoc2 mixed nanomicelles was examined by dynamic light scattering (DLS) via a Malvern Zeta Nanosizer, and the morphology was observed by transmission electron microscopy (TEM) after negative staining. The CMC measurement was performed as reported before with pyrene as a fluorescence probe. To quantify PTX in the micelles, PTX was extracted by methanol, and detected by Waters Alliance 2695-2998 high-performance liquid chromatography (HPLC) system with a RP-18 column (250 mm×4.6 mm) equipped with a UV detector at 227 nm at room temperature. A mixture of methanol/water (80:20, v/v) was used as mobile phase at a flow rate at 0.8 mL/min. The drug loading capacity (DLC) and efficiency (DLE) were calculated as set forth above.

[5] = CMC measurement with pyrene as a fluorescence probe; assay type: physicochemical
Experimental: as §1

[6] = system: 4T1.2 mouse metastatic breast cancer cell line; assay: In vitro cytotoxicity (MTT), 4T1.2; assay type: cell-based; conditions: 4T1.2, 72 h, FIG. 14A
Experimental: (§2) The tumor-inhibitory efficacy of PEG-Fmoc/PTX was also investigated both in vitro and in vivo. In vitro cytotoxicity of PEG-Fmoc/PTX was evaluated in mouse metastatic breast cancer cell line 4T1.2, and two human prostate cancer cell lines, PC-3 and DU145. […] Without limitation to any mechanism, the increased cytotoxicity of PEG-Fmoc/PTX may, for example, be attributable to facilitated entry of PTX into tumor cells.
(§3) 2(b)(viii). In Vitro Cytotoxicity. Mouse metastatic breast cancer cell line 4T1.2, and two human prostate cancer cell lines PC-3 and DU145 were utilized to evaluate the in vitro cytotoxicity of PTX/PEG-Fmoc2. Cells were seeded in 96-well plates at 1000 (4T1.2), 2000 (DU145) and 3000 (PC-3) cells per well. […] Seventy-two h later, 20 μL of 3-(4,5-dimethylthiazol-2-yl)-2,5-diphenyltetrazoliumbromide (MTT, 5 mg/mL) was added into each well. Following incubation for 4 h, the medium was removed and 150 μL of DMSO was added to each well to solubilize the formazan crystal. The absorbance of each well was detected at 550 nm with a reference wavelength at 630 nm using a microplate reader, and cell viability was calculated based on the formula below. Untreated cells were included as a control.
(§4) % cytotoxicity=[1−(ODtreat−ODblank)/(ODcontrol−ODblank)]×100%

[7] = system: PC-3 human prostate cancer cell line; assay: In vitro cytotoxicity (MTT), PC-3; assay type: cell-based; conditions: PC-3, 72 h, FIG. 14B
Experimental: as §2, §3, §4

[8] = system: DU145 human prostate cancer cell line; assay: In vitro cytotoxicity (MTT), DU145; assay type: cell-based; conditions: DU145, 72 h, FIG. 14C
Experimental: as §2, §3, §4

[9] = system: rat red blood cells; assay: Hemolysis assay; assay type: cell-based; conditions: 2 hrs at 37° C., 5 mM
Experimental: We also examined the hemolytic activity of plain micelles prepared from PEG-lipid and lipopeptide conjugates on rat red blood cells and compared the results to two widely used ethoxylated nonionic surfactants: Triton X-100 and Tween 80. In the studies of FIG. 6, rat red blood cells (1%) were incubated with surfactants at indicated concentrations for 2 hrs at 37° C. After such incubation, supernatants were carefully withdrawn, measured for at OD540 nm, and calculated based on OD value under a condition that total hemolysis occurred.
1(j). Hemolysis assay. Rat red blood cells (RBCs) were isolated from freshly collected rat blood with added anticoagulant by washing three times with 10 volumes of cold PBS (1500 rpm for 10 min). RBCs were then diluted to 2% w/v with ice cold DPBS and utilized immediately for the hemolysis assay. One mL of diluted RBC suspension was treated with various concentrations (0-5 mM) of PEG-lipopeptides, Tween 80, and Triton X-100, respectively, and then incubated at 37° C. in an incubator shaker for 2 h. The samples were centrifuged at 1500 rpm for 10 min at 4° C., and 100 μL of supernatant from each sample was transferred into a 96-well plate. The release of hemoglobin was determined by the absorbance at 540 nm using a micro-plate reader. […] Hemoglobin release was calculated as (ODsample−ODnegative control)/(ODpositive control−ODnegative control)×100%.

[10] = Micelle-facilitated solubilization of JP4-039; assay type: physicochemical; conditions: at comparable molar ratios
Experimental: In the solubilization studies of FIG. 4, various amounts of tetra chain PEG5,000-lysyl-[lysyl-(α-Fmoc-ε-oleyol-lysine)2]2 were mixed with JP4-039 in CHCl3 followed by solvent evaporation, the drug-loaded micelles were prepared by hydration in saline. The amounts of solubilized JP4-030 were determined by OD448 measurements from supernatant.
Lipopeptides, amino acid derivatives or nitroxide compounds were first dissolved in chloroform. The solutions were aliquoted to a glass test tube, mixed well, then blown with a constant nitrogen stream to remove the bulk of the solvent. The residual solvent was removed by applying high vacuum for 2 hrs. To determine micelle-facilitated solubilization of JP4-039, various molar ratios of surfactant to drug were applied to make surfactant-drug mixture in water (final concentration of JP4-039 was 5 mg/mL). After at least 30 minutes, the samples were briefly centrifuged at 13,000 rpm. One half of the supernatants was recovered, to which an equal volume of ethanol was added to dissolve/disrupt micelle drug complexes. The amounts of drug in the samples were quantitated using OD448 nm.

## O=C(O[C@@H]1Cc2c(O)cc(O)cc2O[C@@H]1c1cc(O)c(O)c(O)c1)c1cc(O)c(O)c(O)c1 [EGCG, epigallocatechin gallate]
[1]; tested agent itself, Table 1
  solubility: freely
[1]; with multi-chain PEGylated micelle-forming surfactant
  Soluble at: 5 mg/mL
[2]
  Size +/− SD: 89.9 +/− 12 nm
[3]
  Oxidation on storage: readily oxidized

## PEG5K-lysyl-(α-Fmoc-ε-t-Boc-lysine)2 [PEG-Fmoc]
[4]; carrier alone
  Micelle size in aqueous solution: 25˜30 nm
[4]; drug-free carrier 5 mg/mL
  PDI: 0.488
  Particle size: 28.55 ± 0.27 nm
[5]
  CMC: 5.244 µM
[6]
  Cytotoxicity (tumor cell inhibition): did not show apparent toxicity
[7]
  Cytotoxicity (tumor cell inhibition): did not show apparent toxicity
[8]
  Cytotoxicity (tumor cell inhibition): did not show apparent toxicity

## Triton X-100
[9]
  Hemolysis: 100%

## methoxy PEG2,000-carbamoyl-1-palmitoyl-2-oleoyl-sn-glycero-3-phosphotidylethanolamine [compound 8]
[10]
  Activity in forming a stable JP4-039-containing micelle solution: inactive
